15 compounds from patent publication US12370192B2, “Azole-fused pyridazin-3(2H)-one derivatives” (TAKEDA PHARMACEUTICAL COMPANY LIMITED, priority 2019, dated 2025) can be followed below.

Experiment [1] has as its target T1, human GPR139 receptor (Homo sapiens, UniProt Q6DWJ6).
T1 construct: expressed in transfected cells; host or cells: T-REx-CHO (Thermo Fisher Scientific), doxycycline-induced
T1 sequence (Q6DWJ6 1-353): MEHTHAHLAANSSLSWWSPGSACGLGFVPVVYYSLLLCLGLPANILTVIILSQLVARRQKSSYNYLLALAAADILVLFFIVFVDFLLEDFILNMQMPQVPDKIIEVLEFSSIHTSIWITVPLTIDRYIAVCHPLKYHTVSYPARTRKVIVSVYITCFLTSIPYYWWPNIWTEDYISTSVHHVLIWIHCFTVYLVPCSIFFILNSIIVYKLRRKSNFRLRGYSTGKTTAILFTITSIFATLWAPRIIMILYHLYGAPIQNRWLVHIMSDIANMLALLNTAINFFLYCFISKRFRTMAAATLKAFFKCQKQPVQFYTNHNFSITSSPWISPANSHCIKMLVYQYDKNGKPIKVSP
As to the kind of experiment: GPR139 Competition Binding (membrane-based, tritium-labeled ligand). Conditions: T-REx-CHO membranes with human GPR139; 6.5 nM tritium-labeled ligand; 11-point curve, 30 μM maximum concentration; read-out: GPR139 Binding Affinity (pKi) (converted). On the procedure:
OPR139 Competition Binding
This membrane-based assay measures the ability of compounds to competitively bind GPR139 in stably transfected TREx™-CHO membranes. To prepare the membranes, T-REx™-CHO (Thermo Fisher Scientific®) cells are stably expressed with human GPR139 receptor, whose expression is controlled by a tetracycline-inducible element. The cells are cultured in medium containing F-12K nutrient mixture-Kaighn's modification, 10% tetracycline-free FBS, Blasticidin S HCl (10 μg/mL) and Hygromycin B (200 μg/mL). GPR139 receptor expression is induced for 18 hours with 2 μg/mL doxycycline (Sigma D9891) in growth media. After addition of doxycycline, cells are harvested in PBS and pelleted by centrifugation for 5 minutes at 200×G. Liquid is aspirated off and cells are resuspended in ice cold lysis buffer (20 mM HEPES/5 mM EDTA pH 7.4/1× Roche® protease inhibitor). Samples are vortexed until homogenous and then placed on ice and homogenized using a Dounce homogenizer at 50% power (3 cycles, 10 strokes per cycle). Lysate is centrifuged at 4° C. for 10 minutes in a tabletop Sorvall® centrifuge at 2000×G. The supernatant is recovered and centrifuged in a Sorvall® ultracentrifuge at 35,000 rpm for 30 minutes at 4° C. The supernatant is discarded, and the remaining pellet resuspended in lysis buffer (20 mM HEPES/0.1 mM EGTA/Roche® protease inhibitor). Membrane protein concentration is determined using Thermo Fisher® BCA quantification kit and is aliquoted into microtubes. Tubes are snap frozen in liquid nitrogen and stored at −80° C. Prior to use, the membranes are removed from cold storage, thawed to room temperature, vortexed until homogenous and diluted in assay buffer (20 mM HEPES pH 7.3, 5 mM MgCl2, 1 mM CaCl2), 1× Thermo Scientific® Halt™ protease inhibitor (78429)).
The assay is run in 96-well, polypropylene, v-bottom plates (Greiner Bio-One® 651201). Test compound in DMSO is added to the wells of each plate (11-point dose response curve, 30 μM maximum concentration, 3-fold serial dilution). A fixed amount of tritium-labeled ligand, (S)-2-(2,3-dimethyl-7-oxothieno[2,3-d]pyridazin-6(7H)-yl)-N-(1-(4-methoxyphenyl-2-t)propan-2-yl)acetamide (Quotient Bioresearch) in assay buffer (6.5 nM assay concentration) is added to each well of the assay plate, which is then agitated on a plate shaker for 30 seconds. Next, a fixed amount of membranes in assay buffer (2 μg membranes) is added to each well of the assay plate, which is then spun for 30 seconds at 300 rpm in a tabletop Eppendorf centrifuge, and then incubated at room temperature for 20 minutes. Using a Tomtec harvester, the contents of the assay plate are transferred to Filtermat A (PerkinElmer® No. 1450-421) which prior to use is pre-soaked in 0.5% PEI (Sigma P3143) for 3 hours and dried at room temperature overnight. Following transfer, the Filtermat is washed 5 times with cold wash buffer (20 mM HEPES pH 7.3, 100 mM NaCl). The Filtermat is dried using a microwave oven and placed in a sample bag (PerkinElmer® No. 1450-432) with a scintillator sheet (PerkinElmer® No. 1450-411). The scintillator sheet is melted to the Filtermat using a heat block set to 65° C., placed in a MicroBeta® cartridge and read using a MicroBeta® scintillation counter. Binding curves are generated with a four-parameter logistic equation using GraphPad Prism® 6 and the inhibition constant Ki is reported as pKi.

The target of experiment [2] is T1, human GPR139 receptor. Nature of the experiment: Measurement of GPR139 Activation Via Calcium Signaling (FLIPR, T-REx-CHO cells). The class given is cell-based. Conditions: T-REx-CHO cells stably expressing human GPR139, 11-point dose response, 10 μM maximum concentration, read-out: GPR139 Potency (pEC50) (converted). The protocol: Measurement of GPR139 Activation Via Calcium Signaling
This cell-based assay measures the ability of compounds to activate GPR139 in stably transfected T-REx™-CHO cells. T-REx™-CHO cells (Thermo Fisher Scientific®) are stably expressed with human GPR139 receptor, whose expression is controlled by a tetracycline-inducible element. The cells are cultured in medium containing F-12K nutrient mixture-Kaighn's modification, TripleLE™ Express (1×)-phenol red, Dulbecco's phosphate-buffered saline (1×), 10% tetracycline-free FBS, Blasticidin S HCl (10 μg/mL) and Hygromycin B (200 μg/mL). The cells are introduced into the wells of a 384-well black clear bottom plate (Costar®) at 10,000 cells/well. GPR139 receptor expression is induced with 2 μg/mL doxycycline (Sigma D9891). The plate is allowed to stand at room temperature for 10-30 minutes and then incubated at 37° C. and 5% CO2 for 17 hours prior to assay.
Culture media is removed from cells and 45 μL of 1× calcium dye (2.5 mM) is added to each well and incubated at 37° C. and 5% CO2 for 40 minutes. The plate is removed from the incubator and allowed to stand at RT for 20 minutes without a plate cover prior to measurement of calcium signaling. The calcium dye is prepared by adding 10 mL of assay buffer (Hank's Balanced Salt Solution (1×), 1 mM HEPES at pH 7.4) to one vial of calcium dye (FLIPR® Calcium 5 Assay Kit; Molecular Devices) at room temperature, vortexing the mixture until homogenous, and transferring the dye to a 250 mL flask using 10 mL of assay, buffer to rinse the vial. The dye is subsequently transferred to a conical flask, which is filled to the 200 mL mark with assay buffer, and 1 mL of […] probenecid solution (142.68 mg/mL in 1M NaOH aq) is added.
Example compounds suspended in DMSO are received from compound management in microtiter plates (0.25 μL/well) and are diluted in assay buffer (25 μL). Following incubation of the cell plate, the Example compounds are added to the cells (11-point dose response, 10 μM maximum concentration) using a FLIPR® Tetra system (Molecular Devices) and fluorescence is measured continuously for 1 minute. EC50 curves are generated with a four-parameter logistic equation using GraphPad Prism® 6, and activation of GPR139 for each example compound is reported as pEC50.

As for `Cc1ccc([C@H](C)NC(=O)Cn2nc(C)c3cnn(-c4ccccc4)c3c2=O)cc1` [Example 1], at human GPR139 receptor [1], the Ki is 55 nM. Further, the EC50 on human GPR139 receptor [2] is 51.3 nM.
On to `COc1ccc([C@H](C)NC(=O)Cn2nc(C)c3cnn(-c4ccccc4)c3c2=O)cc1` [Example 2, (S)—N-(1-(4-methoxyphenyl)ethyl)-2-(4-methyl-7-oxo-1-phenyl-1,7-dihydro-6H-pyrazolo[3,4-d]pyridazin-6-yl)acetamide], for which the Ki at human GPR139 receptor [1] was 871 nM. Moreover, the EC50 on human GPR139 receptor [2] was 56.2 nM.
With `Cc1ccc([C@H](C)NC(=O)Cn2nc(C(C)C)c3cnn(-c4ccccc4)c3c2=O)cc1` [Example 3, (S)-2-(4-isopropyl-7-oxo-1-phenyl-1,7-dihydro-6H-pyrazolo[3,4-d]pyridazin-6-yl)-N-(1-(p-tolyl)ethyl)acetamide], the Ki at human GPR139 receptor [1] was 72.4 nM. Besides, the EC50 at human GPR139 receptor [2] is at least 10000 nM.
On the same counts, the results for `CC(C)c1nn(CC(=O)N[C@@H](C)c2ccc(C(F)(F)F)cc2)c(=O)c2c1cnn2-c1ccccc1` [Example 4, (S)-2-(4-isopropyl-7-oxo-1-phenyl-1,7-dihydro-6H-pyrazolo[3,4-d]pyridazin-6-yl)-N-(1-(4-(trifluoromethyl)phenyl)ethyl)acetamide] are 91.2 nM and at least 10000 nM.
For the compound `Cc1nn(CC(=O)N[C@@H](C)c2ccc(OC(F)(F)F)cc2)c(=O)c2c1cnn2-c1ccccc1` [Example 5, (S)-2-(4-methyl-7-oxo-1-phenyl-1,7-dihydro-6H-pyrazolo[3,4-d]pyridazin-6-yl)-N-(1-(4-(trifluoromethoxy)phenyl)ethyl)acetamide], the Ki at human GPR139 receptor [1] is 93.3 nM. Besides, at human GPR139 receptor [2], the EC50 was 224 nM.
As for `Cc1ccc([C@H](C)NC(=O)Cn2nc(C)c3cnn(-c4ccccc4)c3c2=O)c(F)c1` [Example 6, (S)—N-(1-(2-fluoro-4-methylphenyl)ethyl)-2-(4-methyl-7-oxo-1-phenyl-1,7-dihydro-6H-pyrazolo[3,4-d]pyridazin-6-yl)acetamide], on human GPR139 receptor [1], the Ki is 23.4 nM. Besides, on human GPR139 receptor [2], the EC50 was at least 10000 nM.
Taken in the same sequence, the figures for `CC(C)c1nn(CC(=O)N[C@@H](C)c2ccc(OC(F)(F)F)cc2)c(=O)c2c1cnn2-c1ccccc1` [Example 7, (S)-2-(4-isopropyl-7-oxo-1-phenyl-1,7-dihydro-6H-pyrazolo[3,4-d]pyridazin-6-yl)-N-(1-(4-(trifluoromethoxy)phenyl)ethyl)acetamide] were 162 nM and at least 10000 nM.
Taken in the same sequence, the figures for `Cc1ccc([C@H](C)NC(=O)Cn2nc(C(C)C)c3cnn(-c4ccccc4)c3c2=O)c(F)c1` [Example 8, (S)—N-(1-(2-fluoro-4-methylphenyl)ethyl)-2-(4-isopropyl-7-oxo-1-phenyl-1,7-dihydro-6H-pyrazolo[3,4-d]pyridazin-6-yl)acetamide] were 27.5 nM and at least 10000 nM.
Taken in the same sequence, the figures for `COc1ccc([C@H](C)NC(=O)Cn2nc(C)c3c(c(C(C)C)nn3C)c2=O)cc1F` [Example 10, (S)—N-(1-(3-fluoro-4-methoxyphenyl)ethyl)-2-(3-isopropyl-1,7-dimethyl-4-oxo-1H-pyrazolo[3,4-d]pyridazin-5(4H)-yl)acetamide] were 120 nM and 79.4 nM.
Turning to `Cc1ccc([C@H](C)NC(=O)Cn2nc(C(C)C)c3cnn(C(C)(C)C)c3c2=O)cc1` [Example 11, (S)-2-(1-(tert-butyl)-4-isopropyl-7-oxo-1,7-dihydro-6H-pyrazolo[3,4-d]pyridazin-6-yl)-N-(1-(p-tolyl)ethyl)acetamide], the Ki on human GPR139 receptor [1] is 107 nM. Further, the EC50 at human GPR139 receptor [2] is 2750 nM.
As to `CC(C)c1nn(CC(=O)N[C@@H](C)c2ccc(C(F)(F)F)cc2)c(=O)c2c1cnn2C(C)(C)C` [Example 12, (S)-2-(1-(tert-butyl)-4-isopropyl-7-oxo-1,7-dihydro-6/1-pyrazolo[3,4-d]pyridazin-6-yl)-N-(1-(4-(trifluoromethyl)phenyl)ethyl)acetamide], the Ki on human GPR139 receptor [1] is 33.9 nM. Besides, the EC50 at human GPR139 receptor [2] was 2140 nM.
Taken in the same sequence, the figures for `Cc1ccc([C@H](C)NC(=O)Cn2nc(C)c3cnn(C(C)(C)C)c3c2=O)cc1` [Example 13, (S)-2-(1-(tert-butyl)-4-methyl-7-oxo-1,7-dihydro-6H-pyrazolo[3,4-d]pyridazin-6-yl)-N-(1-(p-tolyl)ethyl)acetamide] were 20.9 nM and 102 nM.
Regarding `Cc1nn(CC(=O)N[C@@H](C)c2ccc(C(F)(F)F)cc2)c(=O)c2c1cnn2C(C)(C)C` [Example 14, (S)-2-(1-(tert-butyl)-4-methyl-7-oxo-1,7-dihydro-6H-pyrazolo[3,4-d]pyridazin-6-yl)-N-(1-(4-(trifluoromethyl)phenyl)ethyl)acetamide], the Ki at human GPR139 receptor [1] was 37.2 nM. On human GPR139 receptor [2], the EC50 is 617 nM.
`C[C@H](NC(=O)Cn1ncc2ccn(C)c2c1=O)c1ccc(C(F)(F)F)cc1` [Example 164, (S)-2-(1-methyl-7-oxo-1,7-dihydro-6H-pyrrolo[2,3-d]pyridazin-6-yl)-N-(1-(4-(trifluoromethyl)phenyl)ethyl)acetamide]: at human GPR139 receptor [1], the Ki was 200 nM.
With `Cc1nn(C2CC2)c2cnn(CC(=O)N[C@H](c3ccccc3)C3CC3)c(=O)c12` [Example 173, (S)—N-(cyclopropyl(phenyl)methyl)-2-(1-cyclopropyl-3-methyl-4-oxo-1,4-dihydro-5H-pyrazolo[3,4-d]pyridazin-5-yl)acetamide], at human GPR139 receptor [1], the Ki was 30200 nM.
